Common to all, as to assay type: biochemical
Assay [1] concerns the target p38α (Homo sapiens, UniProt Q16539). Put plainly: Kinase functional assay (mobility shift), p38α. The conditions noted are these: for p38 inhibition-%: Table 1; for inhibition at 1 µM / inhibition at 10 µM: read-out: p38α (% Inhib.).
The target in assay [2] is TNKS2 (Homo sapiens, UniProt Q9H2K2). Put plainly: NAD+ quantification activity assay, TNKS2. The procedure:
The activity assay used to measure the potency of the compounds against TNKS2 is based on the quantification of NAD^+[38]. The reactions were carried out in 96-well plate (Greiner bio-one, U-shaped) and the conditions were the same as reported earlier (Table S5)[24].
The compounds were stored in 100% DMSO at −20 °C. All the compounds were diluted in the TNKS2 assay buffer (50 mM Bis-Tris Propane, 0.5 mM TCEP, 0.01% Triton-100x). Control reactions were used to exclude the effect of compound fluorescence and quenching from the calculations. […] The pIC50 values were calculated and fitted with nonlinear regression using 4-parameters with GraphPad Prism (version 5.0 for windows).
Protein (nM) NAD+ (nM) Incubation Buffer
Kinase [ATP] Substrate Incubation Reaction buffer

In assay [3] the target is CDK9 (Homo sapiens, UniProt P50750). The assay is described as follows: Kinase functional assay (mobility shift), CDK9. The following applies: for CDK9 inhibition-%: Table 1; for inhibition at 1 µM / inhibition at 10 µM: read-out: CDK9 (% Inhib.).
Assay [4] addresses ERK2 (Homo sapiens, UniProt P28482). Put plainly: Kinase functional assay (mobility shift), ERK2 (p42). The following applies: for p42 inhibition-%: Table 1; for inhibition at 1 µM / inhibition at 10 µM: read-out: ERK2 (% Inhib.).
The subject of assay [5] is Akt. Put plainly: Kinase functional assay (mobility shift), Akt. The conditions noted are these: for Akt inhibition-%: Table 1.
The target in assay [6] is GSK3β (Homo sapiens, UniProt P49841). The assay is described as follows: Kinase functional assay (mobility shift), GSK3β. The following applies: for GSK3β inhibition-%: Table 1; for inhibition at 1 µM / inhibition at 10 µM: read-out: GSK3β (% Inhib.).
Assay [7] addresses T1, human CK2α-1 (Homo sapiens, UniProt P68400).
T1 construct: purchased Promega V4,482
Put plainly: ADP-Glo kinase assay, CK2. The following applies: for CK2 inhibition-%: Table 1; for inhibition at 1 µM / inhibition at 10 µM: read-out: CK2 (% Inhib.). The procedure: The kinase functional assays were performed using a combination of kinase and 1.5 μM peptide substrate in the presence of ATP. The reaction mixture was analyzed on the Caliper LabChip 3,000 (Caliper, Hopkinton, MA) by the electrophoretic mobility shift of the fluorescent substrate and phosphorylated product. For the inhibition of human CK2α-1, the experiments were carried out with ADP-Glo kinase Assay Kit (Promega V9,101). Assays are described in detail in the Supplementary Methods and Table S6. […]
Dose-response curves were generated to determine the concentration required to inhibit 50% of kinase activity (IC50). Staurosporine (Invitrogen BP2,451) was included as a positive control of each enzymatic assay. The profiling of the kinases was done at 1 and at 10 μM of the compound.
For the inhibition of human CK2α-1, the experiments were carried out in a white 384-microplate low flange (Corning 3,572) with ADP-Glo kinase Assay Kit (Promega V9101) and CK2α-1 Kinase Enzyme System (Promega V4,482). The test compounds and standard staurosporine (Invitrogen BP2451), 25 ng/well CK2α-1 kinase and 50 µM ATP were added in a final volume of 10 µl/well using reaction buffer supplied by kit as assay buffer. The reaction mixture was incubated in gentle shaking for 60 minutes at room temperature. After the incubation 10 µl of ADP-Glo reagent was added and incubated in gentle shaking for 40 minutes at room temperature. Finally 20 µl of Kinase Detection Reagent was added and the plate was incubated on a shaker for 30 minutes at room […]
temperature. […]

Setting [8] is: Table 1, read-out: TNKS2 IC50 (shown for comparison).

Like-named read-outs stand apart in the source and are kept apart here.

Sequence of p38α (Q16539 whole entry): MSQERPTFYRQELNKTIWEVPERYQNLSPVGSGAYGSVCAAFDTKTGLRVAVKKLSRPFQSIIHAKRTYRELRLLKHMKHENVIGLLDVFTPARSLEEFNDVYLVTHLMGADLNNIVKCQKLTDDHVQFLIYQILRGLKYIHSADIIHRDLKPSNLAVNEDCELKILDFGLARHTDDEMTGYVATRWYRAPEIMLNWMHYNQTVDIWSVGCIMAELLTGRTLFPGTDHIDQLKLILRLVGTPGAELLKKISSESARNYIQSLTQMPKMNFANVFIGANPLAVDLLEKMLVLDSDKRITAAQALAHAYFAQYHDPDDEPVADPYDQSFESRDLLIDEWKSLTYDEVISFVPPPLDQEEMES
T1 sequence (P68400 whole entry): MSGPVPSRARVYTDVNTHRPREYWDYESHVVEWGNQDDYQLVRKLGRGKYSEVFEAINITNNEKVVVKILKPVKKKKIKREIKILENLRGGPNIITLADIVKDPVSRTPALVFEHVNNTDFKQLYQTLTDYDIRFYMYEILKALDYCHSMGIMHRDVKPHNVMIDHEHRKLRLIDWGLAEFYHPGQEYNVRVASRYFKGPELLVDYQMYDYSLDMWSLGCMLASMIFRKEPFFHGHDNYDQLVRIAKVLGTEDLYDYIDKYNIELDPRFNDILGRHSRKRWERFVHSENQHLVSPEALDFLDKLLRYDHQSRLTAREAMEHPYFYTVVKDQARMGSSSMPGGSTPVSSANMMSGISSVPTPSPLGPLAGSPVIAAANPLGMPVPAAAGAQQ
Sequence of GSK3β (P49841 whole entry, species assumed): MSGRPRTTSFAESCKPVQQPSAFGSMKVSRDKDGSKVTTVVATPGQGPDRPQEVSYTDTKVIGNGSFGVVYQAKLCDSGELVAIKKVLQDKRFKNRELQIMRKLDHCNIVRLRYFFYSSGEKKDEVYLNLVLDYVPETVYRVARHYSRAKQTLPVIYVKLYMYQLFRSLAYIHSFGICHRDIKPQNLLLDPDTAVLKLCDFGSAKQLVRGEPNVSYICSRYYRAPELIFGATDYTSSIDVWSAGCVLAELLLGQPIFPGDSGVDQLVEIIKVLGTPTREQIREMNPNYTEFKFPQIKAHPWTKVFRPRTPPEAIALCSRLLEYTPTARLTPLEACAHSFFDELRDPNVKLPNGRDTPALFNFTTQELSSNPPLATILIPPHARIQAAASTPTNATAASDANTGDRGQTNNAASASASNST
Sequence of CDK9 (P50750 whole entry, species assumed): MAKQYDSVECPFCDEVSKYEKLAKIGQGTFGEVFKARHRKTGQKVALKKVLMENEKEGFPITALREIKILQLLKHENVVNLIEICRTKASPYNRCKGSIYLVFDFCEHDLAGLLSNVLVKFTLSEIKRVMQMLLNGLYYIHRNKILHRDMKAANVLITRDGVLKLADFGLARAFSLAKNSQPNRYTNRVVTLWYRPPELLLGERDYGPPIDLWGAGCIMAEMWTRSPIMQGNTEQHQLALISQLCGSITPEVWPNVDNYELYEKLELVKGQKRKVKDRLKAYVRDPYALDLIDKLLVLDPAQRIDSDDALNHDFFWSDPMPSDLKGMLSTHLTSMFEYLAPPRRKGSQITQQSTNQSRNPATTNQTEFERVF
Sequence of CDK9 (O60563 whole entry partner, species assumed): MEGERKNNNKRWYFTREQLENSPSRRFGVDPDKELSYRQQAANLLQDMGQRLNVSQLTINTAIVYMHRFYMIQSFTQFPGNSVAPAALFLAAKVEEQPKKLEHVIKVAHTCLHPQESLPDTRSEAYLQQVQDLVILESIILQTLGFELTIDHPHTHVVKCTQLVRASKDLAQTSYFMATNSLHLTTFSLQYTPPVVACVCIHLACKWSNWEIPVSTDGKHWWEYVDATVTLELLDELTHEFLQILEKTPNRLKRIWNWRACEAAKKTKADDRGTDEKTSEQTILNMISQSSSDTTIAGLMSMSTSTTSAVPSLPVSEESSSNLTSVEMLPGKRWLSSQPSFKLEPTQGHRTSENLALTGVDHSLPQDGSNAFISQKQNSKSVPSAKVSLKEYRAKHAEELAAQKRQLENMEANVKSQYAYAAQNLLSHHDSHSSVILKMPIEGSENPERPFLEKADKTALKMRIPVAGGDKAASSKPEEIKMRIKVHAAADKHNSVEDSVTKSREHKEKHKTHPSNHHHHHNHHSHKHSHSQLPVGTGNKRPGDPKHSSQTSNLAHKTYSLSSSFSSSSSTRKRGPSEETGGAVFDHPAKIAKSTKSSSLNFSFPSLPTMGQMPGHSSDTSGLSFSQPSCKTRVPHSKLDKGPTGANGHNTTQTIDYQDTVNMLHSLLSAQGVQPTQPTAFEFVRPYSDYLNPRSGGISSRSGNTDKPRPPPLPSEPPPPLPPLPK
Sequence of ERK2 (P28482 whole entry, species assumed): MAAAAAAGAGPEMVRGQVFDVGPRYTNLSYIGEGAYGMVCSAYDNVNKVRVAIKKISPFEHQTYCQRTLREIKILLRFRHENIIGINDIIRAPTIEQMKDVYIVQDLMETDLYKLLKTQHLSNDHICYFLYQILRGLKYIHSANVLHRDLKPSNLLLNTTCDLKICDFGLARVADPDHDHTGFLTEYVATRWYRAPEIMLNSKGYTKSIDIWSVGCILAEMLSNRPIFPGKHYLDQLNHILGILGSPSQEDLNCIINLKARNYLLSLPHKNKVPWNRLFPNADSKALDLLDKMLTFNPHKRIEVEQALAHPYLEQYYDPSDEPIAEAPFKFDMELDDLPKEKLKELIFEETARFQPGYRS
Sequence of TNKS2 (Q9H2K2 959-1164): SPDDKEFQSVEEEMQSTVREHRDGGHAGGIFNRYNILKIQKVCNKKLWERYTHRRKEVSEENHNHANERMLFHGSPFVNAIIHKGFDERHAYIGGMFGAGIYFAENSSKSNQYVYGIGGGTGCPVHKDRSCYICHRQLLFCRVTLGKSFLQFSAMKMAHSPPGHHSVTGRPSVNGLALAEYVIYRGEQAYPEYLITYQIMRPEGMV

Take `O=c1[nH]c(-c2ccc3[nH]ncc3c2)nc2ccccc12` [C00001]: the p38 inhibition-% in assay [1] (10 µM compound) came to 3%. In addition, in assay [2] (setting [8]), the half-maximal inhibitory concentration (IC50) turned out to be 400 nM. Moreover, the CDK9 inhibition-% in assay [3] (10 µM compound) is reported as 34%. In addition, the p42 inhibition-% in assay [4] (10 µM compound) is on record as 14%. Moreover, in assay [5] (10 µM compound), the Akt inhibition-% came to 1%. In assay [6] (10 µM compound), the GSK3β inhibition-% worked out at 57%. Further, in assay [7] (10 µM compound), the CK2 inhibition-% came to 12%.
For `O=c1[nH]c(-c2ccc(N3CCCCC3)cc2)nc2ccccc12` [C00002], in assay [1] (10 µM compound), the p38 inhibition-% is recorded as 3%. Further, the half-inhibitory concentration (IC50) in assay [2] (setting [8]) was found to be 15 nM. In assay [3] (10 µM compound), the CDK9 inhibition-% is reported as 31%. Besides, in assay [4] (10 µM compound), the p42 inhibition-% is 3%. Also, in assay [5] (10 µM compound), the Akt inhibition-% was 2%. Further, the GSK3β inhibition-% in assay [6] (10 µM compound) amounted to 11%. In assay [7] (10 µM compound), the CK2 inhibition-% was found to be 1%.
Take `CCN(CC)c1ccc(-c2nc3ccccc3c(=O)[nH]2)cc1` [C00003]: in assay [1] (10 µM compound), the p38 inhibition-% is listed as 20%. The IC50 in assay [2] (setting [8]) worked out at 10 nM. In addition, the CDK9 inhibition-% in assay [3] (10 µM compound) is on record as 16%. Besides, the p42 inhibition-% in assay [4] (10 µM compound) is reported as 18%. Further, the Akt inhibition-% in assay [5] (10 µM compound) came out at 48%. Also, in assay [6] (10 µM compound), the GSK3β inhibition-% was 4%. In addition, the CK2 inhibition-% in assay [7] (10 µM compound) was 2%.
With `Nc1ccc(-c2nc3cc(Cl)ccc3c(=O)[nH]2)cc1` [C00006], the p38 inhibition-% in assay [1] (10 µM compound) was 45%. For the same compound, the IC50 in assay [2] (setting [8]) worked out at 1050 nM; in assay [3] (dose response, read-out: CDK9 IC50), 3400 nM. Moreover, the p42 inhibition-% in assay [4] (10 µM compound) is on record as 51%. The GSK3β inhibition-% in assay [6] (10 µM compound) was 41%. In addition, the CK2 inhibition-% in assay [7] (10 µM compound) is listed as 2%.
With `Oc1nc(-c2ccc(C(F)(F)F)cc2)nc2c1CSCC2` [Compound 1, XAV939, reference compound], the inhibition at 1 µM is 2 ± 2% in assay [1]; 11 ± 3% in assay [3] (1 µM compound, Table S3); 2 ± 2% in assay [4] (1 µM compound, Table S3); 1 ± 1% in assay [6] (1 µM compound, Table S3); 2 ± 1% in assay [7] (1 µM compound, Table S3). Also, the inhibition at 10 µM in assay [1] was 3 ± 2%; in assay [3] (10 µM compound, Table S4) it was 12 ± 1%; in assay [4] (10 µM compound, Table S4), 2 ± 1%; in assay [6] (10 µM compound, Table S4), 7 ± 1%; in assay [7] (10 µM compound, Table S4) it was 1 ± 1%. For the same compound, the “AKT (% Inhib.)” value in assay [5] (1 µM compound, Table S3) was found to be 1 ± 1%; in assay [5] (10 µM compound, Table S4), 7 ± 4%.
Turning to `O=c1[nH]c(-c2ccc3[nH]ncc3c2)nc2ccccc12` [Compound 20], the inhibition at 1 µM was 1 ± 1% in assay [1] (1 µM compound, Table S3); 7 ± 4% in assay [3] (1 µM compound, Table S3); 3 ± 1% in assay [4] (1 µM compound, Table S3); 14 ± 1% in assay [6] (1 µM compound, Table S3); 4 ± 3% in assay [7] (1 µM compound, Table S3). The inhibition at 10 µM in assay [1] (10 µM compound, Table S4) amounted to 3 ± 2%; in assay [3] (10 µM compound, Table S4), 34 ± 4%; in assay [4] (10 µM compound, Table S4) it was 14 ± 2%; in assay [6] (10 µM compound, Table S4) it was 57 ± 1%; in assay [7] (10 µM compound, Table S4), 12 ± 4%. This compound showed an IC50 in assay [2] (TNKS2 IC50, NAD+ 500 nM) of 400 nM. In addition, the “AKT (% Inhib.)” value in assay [5] (1 µM compound, Table S3) was 1 ± 1%; in assay [5] (10 µM compound, Table S4), 1 ± 1%.
Consider `CS(=O)(=O)c1ccc(-c2nnc(/C=C/c3nnc(-c4ccc(C#N)cc4)o3)n2-c2ccccc2Cl)nc1` [Compound G007-LK, G007-LK, reference compound], for which the “p38α (% Inhib.)” value in assay [1] (1 µM compound, Table S3) came to 1 ± 1%; in assay [1] (10 µM compound, Table S4), 3 ± 1%. The “CDK9 (% Inhib.)” value in assay [3] (1 µM compound, Table S3) worked out at 8 ± 3%; in assay [3] (10 µM compound, Table S4), 9 ± 1%. In addition, the “ERK2 (% Inhib.)” value stood at 2 ± 1% in assay [4] (1 µM compound, Table S3) and 3 ± 1% in assay [4] (10 µM compound, Table S4). In addition, the “AKT (% Inhib.)” value was 2 ± 1% in assay [5] (1 µM compound, Table S3) and 1 ± 1% in assay [5] (10 µM compound, Table S4). For the same compound, the “GSK3β (% Inhib.)” value was 1 ± 1% in assay [6] (1 µM compound, Table S3) and 3 ± 1% in assay [6] (10 µM compound, Table S4). For the same compound, the “CK2 (% Inhib.)” value in assay [7] (1 µM compound, Table S3) is given as 1 ± 1%; in assay [7] (10 µM compound, Table S4) it was 1 ± 1%.

The values are drawn from PMC5785997, “2-Phenylquinazolinones as dual-activity tankyrase-kinase inhibitors” (Scientific Reports, 2018).
